From patent US20060257539A1 (priority 2005, published 2006)

How the values were obtained:
[1] = test system: C. botulinum 53B (proteolytic) vegetative cells; format: cell-based, Clostridium botulinum; settings: pH 5.5
Lactobacillus plantarum = format: cell-based
[2] = test system: Lactococcus lactis subsp. cremoris; format: cell-based
[3] = standard plate well diffusion assay of RTD beverage; format: cell-based
[4] = test system: Lactococcus lactis subsp. cremoris; format: cell-based; remark: listed apart in the source
[5] = test system: C. botulinum Alaska E (non-proteolytic) vegetative cells; format: cell-based, Clostridium botulinum; settings: pH 5.5
[6] = test system: C. botulinum Toxin type E spores; format: cell-based, Clostridium botulinum; settings: pH 5.5
[7] = comparative antimicrobial activity in various foodstuff or media (summary table); set-up: key: + means antimicrobial activity, multiple + indicates increased antimicrobial activity; ++: multiple + indicates increased antimicrobial activity; +++: multiple + indicates increased antimicrobial activity; − means no antimicrobial activity
[8] = test system: all strains of C. botulinum tested (vegetative cells); format: cell-based, Clostridium botulinum
[9] = test system: C. botulinum Beluga E vegetative cells; format: cell-based, Clostridium botulinum
[10] = test system: C. botulinum Toxin type B (non-proteolytic) spores; format: cell-based, Clostridium botulinum; settings: pH 5.5
[11] = test system: C. botulinum Toxin type B (proteolytic) spores; format: cell-based, Clostridium botulinum; settings: pH 5.5
[12] = test system: C. botulinum E mixed strains vegetative cells; format: cell-based, Clostridium botulinum
[13] = test system: C. botulinum 33A (proteolytic) vegetative cells; format: cell-based, Clostridium botulinum; settings: pH 5.5
[14] = test system: Lactococcus lactis subsp. cremoris; format: cell-based; remark: listed apart in the source
[15] = test system: C. botulinum Alaska E vegetative cells; format: cell-based, Clostridium botulinum
[16] = test system: all tested C. botulinum strains (spores); format: cell-based, Clostridium botulinum
[17] = test system: C. botulinum Beluga E (Non-proteolytic) vegetative cells; format: cell-based, Clostridium botulinum; settings: pH 5.5
[18] = test system: C. botulinum Toxin type A (proteolytic) spores; format: cell-based, Clostridium botulinum; settings: pH 5.5

## ε-poly-L-lysine
[1]
  Inhibition zone against indicator C. botulinum strain 53B (proteolytic): 0 mm
Lactobacillus plantarum
  inhibition of growth of L. plantarum (in words): very limited inhibition on the initial growth of L. plantarum
[2]
  effect on apparent nisin activity (in words): significantly increased
[3]; very low levels of ε-poly-L-lysine (50 ppm) added to nisin 250 IU/ml
  effect on apparent nisin activity in RTD beverage (in words): significantly increased
[3]; ε-poly-L-lysine 50 ppm alone, fruit juice-containing RTD beverage
  Inhibition zone: 0 mm
[4]
  Apparent nisin activity: 0 IU/g
  effect on measurable nisin activity in dairy product (in words): increased the measurable nisin activity
[5]
  Inhibition zone against indicator C. botulinum strain Alaska E (non-proteolytic): 0 mm
[6]
  Inhibition zone against indicator C. botulinum strain Toxin type E: 0 mm
[7]; BHI broth
  antimicrobial activity: −
[7]; Beverages
  antimicrobial activity: +
[7]; Brain heart infusion agar (BHI)
  antimicrobial activity: −
[7]; Green beans packed in water
  antimicrobial activity: −
[7]; Hot dogs
  antimicrobial activity: −
[7]; Savory cream
  antimicrobial activity: −
[8]
  inhibition of growth of C. botulinum strains from vegetative cells (in words): did not show clear or strong inhibition
[9]
  Inhibition zone against indicator C. botulinum strain Beluga E: 0 mm
[10]
  Inhibition zone against indicator C. botulinum strain Toxin type B (non-proteolytic): 0 mm
[11]
  Inhibition zone against indicator C. botulinum strain Toxin type B (proteolytic): 0 mm
[12]
  Inhibition zone against indicator C. botulinum E mixed strains: 0 mm
[13]
  Inhibition zone against indicator C. botulinum strain 33A (proteolytic): 0 mm
[14]
  Inhibition zone: 0 mm
[15]
  Inhibition zone against indicator C. botulinum strain Alaska E: 0 mm
[16]
  inhibition of growth of C. botulinum from spores (in words): unable to inhibit the growth of C. botulinum from spores
[17]
  Inhibition zone against indicator C. botulinum strain Beluga E (Non-proteolytic): 0 mm
[18]
  Inhibition zone against indicator C. botulinum strain Toxin type A (proteolytic): 0 mm
